Like-named read-outs stand apart in the source and are kept apart here.

This is an account of results in patent publication US9776972B2, “Pyrazole derivatives as arginine methyltransferase inhibitors and uses thereof” (priority 2013, dated 2017).

The target in one assay is T1, human PRMT1 (Homo sapiens, UniProt Q99873).
T1 construct: GST-tagged PRMT1; made in house; host or cells: High Five insect cells (baculovirus)
The assay can be described thus: PRMT1 Biochemical Assay (3H-SAM Flashplate, peptide substrate). The following applies: single experiment or average of multiple experiments. The gist of the method: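 GST-tagged PRMT1 from baculovirus-infected cells, preincubated with compounds 30 min at room temperature in 20 mM Bicine pH 7.6, 1 mM TCEP, 0.005% BSG, 0.002% Tween 20. Reaction started with ³H-SAM plus biotinylated peptide, stopped with 300 µM cold SAM.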

A further assay addresses T2, human PRMT6 (Homo sapiens, UniProt Q96LA8).
T2 construct: Flag-PRMT6-His; made in house; host or cells: HEK 293F cells (BacMam baculovirus)
The assay can be described thus: PRMT6 Biochemical Assay (3H-SAM Flashplate, peptide substrate). The gist of the method:
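Flag-PRMT6-His, expressed in mammalian cells from a BacMam vector, was preincubated with compound for 30 min at room temperature in Bicine pH 7.6 buffer with TCEP, BSG and Tween 20. Reactions were started with ³H-SAM and a biotinylated histone H4 36-50 peptide, then stopped with cold SAM (400 uM final). Labeled peptide was captured on streptavidin Flashplates, counted, and fitted to a 3- or 4-parameter curve.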

[1] abbreviates: Biochemical IC50 PRMT6, single experiment or average of multiple experiments.
Where [2] appears, read: single experiment or average of multiple experiments, read-out: Biochemical IC50 PRMT6.

T1 sequence (Q99873 with tags, fused parts or gaps): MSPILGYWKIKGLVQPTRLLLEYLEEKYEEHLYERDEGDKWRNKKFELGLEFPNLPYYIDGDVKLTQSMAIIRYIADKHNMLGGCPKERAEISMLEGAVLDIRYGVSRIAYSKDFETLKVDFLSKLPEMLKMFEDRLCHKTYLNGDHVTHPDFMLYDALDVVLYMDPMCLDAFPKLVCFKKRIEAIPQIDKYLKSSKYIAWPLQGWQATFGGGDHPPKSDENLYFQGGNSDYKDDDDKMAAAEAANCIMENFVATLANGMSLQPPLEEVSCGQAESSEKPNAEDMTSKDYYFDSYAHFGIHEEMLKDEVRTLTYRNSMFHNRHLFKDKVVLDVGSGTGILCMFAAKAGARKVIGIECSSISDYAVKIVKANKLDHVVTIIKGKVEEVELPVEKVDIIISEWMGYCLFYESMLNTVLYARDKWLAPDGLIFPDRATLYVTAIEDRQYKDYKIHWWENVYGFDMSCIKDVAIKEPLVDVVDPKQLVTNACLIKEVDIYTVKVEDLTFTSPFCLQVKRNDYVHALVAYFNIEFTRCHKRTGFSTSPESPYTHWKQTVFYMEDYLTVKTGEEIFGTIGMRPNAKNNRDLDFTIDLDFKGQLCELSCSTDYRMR
T2 sequence (Q96LA8 with tags, fused parts or gaps): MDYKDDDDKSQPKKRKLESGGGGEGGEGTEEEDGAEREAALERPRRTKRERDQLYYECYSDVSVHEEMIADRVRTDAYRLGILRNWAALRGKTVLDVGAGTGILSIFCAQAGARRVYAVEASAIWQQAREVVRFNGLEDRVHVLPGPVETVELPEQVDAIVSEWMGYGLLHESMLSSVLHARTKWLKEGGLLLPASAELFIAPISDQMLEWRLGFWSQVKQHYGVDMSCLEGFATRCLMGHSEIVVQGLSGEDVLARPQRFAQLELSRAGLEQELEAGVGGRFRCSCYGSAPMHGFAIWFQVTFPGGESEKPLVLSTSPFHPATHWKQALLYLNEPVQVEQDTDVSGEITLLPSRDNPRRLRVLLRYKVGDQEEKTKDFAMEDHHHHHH

Regarding `CCn1ncc(CN(C)CCNC)c1-c1ccc(OC(C)C)cc1` [Compound 252], the IC50 against human PRMT1 came out at 25.8 nM; against human PRMT6 (setting [1]) it was 102 nM.
With `CNCCN(C)Cc1c[nH]nc1-c1ccc(OC)cc1OC` [Compound 55], the IC50 against human PRMT1 stood at 190 nM; at human PRMT6 (setting [2]) it was 87 nM.
Consider `CNCCN(C)Cc1c[nH]nc1-c1ccc(F)c(F)c1` [Compound 51], for which the IC50 against human PRMT1 is 12.9 nM; against human PRMT6 (setting [1]), 9.95 nM.
The corresponding values for `CNCCN(C)Cc1c[nH]nc1-c1ccc(Oc2ccccc2F)cc1` [Compound 237] are 2.06 nM and 2.13 nM.
Regarding `CNCCN(C)Cc1n[nH]cc1-c1ccc(Oc2ccccc2F)cc1` [Compound 279, N^1-((4-(4-(2-fluorophenoxy)phenyl)-1H-pyrazol-3-yl)methyl)-N^1,N^2-dimethylethane-1,2-diamine], the IC50 was found to be 3.46 nM on human PRMT1 and 1.87 nM against human PRMT6 (setting [1]).
Regarding `CNCCN(C)Cc1cn(C2CCCCC2)nc1-c1ccc(OC(C)C)cc1` [Compound 256], the IC50 at human PRMT1 is 132 nM; on human PRMT6 (setting [1]), 921 nM.
In the case of `CNCCN(C)Cc1c[nH]nc1-c1cccc2ccccc12` [Compound 57], the IC50 at human PRMT1 was found to be 7.07 nM; on human PRMT6 (setting [1]) it was 10.3 nM.
In the same order, the values of `CCN(CCN)Cc1c[nH]nc1-c1ccc(F)cc1` [Compound 62] are 13.9 nM and 7.87 nM.
The corresponding values for `CNCCN(C)Cc1cn(CCC(O)CO)nc1-c1ccc(F)cc1` (centres unmarked) [Compound 59] are 5860 nM and 627 nM.
On to `CNCCN(C)Cc1c[nH]nc1-c1ccc(C(=O)c2ccccc2)cc1` [Compound 45], for which the values for the IC50 against human PRMT1 and at human PRMT6 (setting [2]) were 8.34 nM and 7.54 nM, respectively.
In the same order, the values of `CNCCN(C)Cc1c[nH]nc1-c1c(OC)cccc1OC` [Compound 56] are 5850 nM and 1900 nM.
With `CNCCN(C)Cc1c[nH]nc1-c1ccc(Oc2cccc(C(C)C)c2)cc1` [Compound 262], the IC50 at human PRMT1 is 5.63 nM; on human PRMT6 (setting [1]) it was 1.46 nM.
In the same order, the values of `CN(CCN)Cc1c[nH]nc1-c1ccc(Oc2ccccc2F)cc1` [Compound 259] are 1.32 nM and 0.8 nM.
In the case of `CNCCN(C)Cc1cnn(CCCC(O)CO)c1-c1ccc(F)cc1` (centres unmarked) [Compound 31], the IC50 at human PRMT1 amounted to 779 nM; against human PRMT6 (setting [1]), 110 nM.
Take `CNCCN(C)Cc1c[nH]nc1-c1ccc(OCCCO)cc1` [Compound 236]: the IC50 stood at 9.17 nM against human PRMT1 and 14.7 nM against human PRMT6 (setting [1]).
In the case of `CNCCN(C)Cc1cn(Cc2ccncc2)nc1-c1ccc(OC(C)C)cc1` [Compound 245], the half-inhibitory concentration (IC50) was determined as 35.3 nM on human PRMT1 and 224 nM at human PRMT6 (setting [1]).
The corresponding values for `CNCCN(C)Cc1c[nH]nc1-c1cccc(C#N)c1` [Compound 22] are 166 nM and 11.9 nM.
With `CCNC(=O)c1cccc(-c2n[nH]cc2CN(C)CCNC)c1` [Compound 43], the IC50 worked out at 338 nM against human PRMT1 and 51.9 nM on human PRMT6 (setting [1]).
In the same order, the values of `CNCCN(C)Cc1c[nH]nc1-c1ccc(F)cc1F` [Compound 49] are 165 nM and 39.3 nM.
Turning to `C=CC(=O)Nc1cccc(-c2[nH]ncc2CN(C)CCNC)c1` [Compound 258], the IC50 was determined as 43.9 nM at human PRMT1 and 173 nM against human PRMT6 (setting [1]).
In the same order, the values of `CNCCN(C)Cc1c[nH]nc1-c1ccc(CO)cc1` [Compound 28] are 11.1 nM and 9.1 nM.
For `CNCCN(C)Cc1c[nH]nc1-c1ccccc1C(F)(F)F` [Compound 38], the IC50 against human PRMT1 is 1830 nM; on human PRMT6 (setting [2]), 352 nM.
Take `CNCCN(C)Cc1c[nH]nc1-c1cccc(OC)c1` [Compound 24]: the IC50 worked out at 85.6 nM at human PRMT1 and 26.2 nM on human PRMT6 (setting [1]).
In the same order, the values of `CNCCN(C)Cc1c[nH]nc1-c1ccc(Oc2ccccc2C(=O)NC)cc1` [Compound 274] are 19.3 nM and 7.57 nM.
The corresponding values for `CNCCN(C)Cc1cnn(CC(=O)OC)c1-c1ccc(OC(C)C)cc1` [Compound 249] are 109 nM and 428 nM.
For `C=C(C)C(=O)Nc1cccc(-c2[nH]ncc2CN(C)CCNC)c1` [Compound 257], the IC50 against human PRMT1 was 135 nM; on human PRMT6 (setting [1]), 213 nM.
In the same order, the values of `CNCCN(C)Cc1c[nH]nc1-c1cc(Cl)c(OCC2CC2)c(Cl)c1` [Compound 282] are 2.21 nM and 4.75 nM.
`CNCCN(C)Cc1c[nH]nc1-c1ccc(Oc2ccccc2)c(C(=O)NC)c1` [Compound 232]: the concentration for half-maximal inhibition (IC50) against human PRMT1 was 25 nM; against human PRMT6 (setting [1]), 16.6 nM.
The corresponding values for `CNCCN(C)Cc1c[nH]nc1-c1cc(C(C)C)cc(C(C)C)c1` [Compound 229, N^1-((3-(3,5-diisopropylphenyl)-1H-pyrazol-4-yl)methyl)-N^1,N^2-dimethylethane-1,2-diamine] are 59.7 nM and 201 nM.
For `CNCCN(C)Cc1c[nH]nc1-c1ccc(Oc2ccccc2)cc1` [Compound 37], the IC50 on human PRMT1 is 2.74 nM; at human PRMT6 (setting [1]) it was 3.29 nM.
In the same order, the values of `CNCCN(C)Cc1c[nH]nc1-c1cccc([N+](=O)[O-])c1` [Compound 21] are 57.9 nM and 12.2 nM.
The corresponding values for `CNCCN(C)Cc1c[nH]nc1-c1ccc(F)cc1` [Compound 2, N^1-((3-(4-fluorophenyl)-1H-pyrazol-4-yl)methyl)-N^1,N^2-dimethylethane-1,2-diamine] are 57.6 nM and 96.1 nM.
The corresponding values for `CNCCN(C)Cc1c[nH]nc1-c1ccc(Oc2cccc(F)c2)cc1` [Compound 231] are 4.08 nM and 2.97 nM.
Take `CC(C)Cc1cccc(-c2n[nH]cc2CN(C)CCN)c1` [Compound 235]: the IC50 was 8.35 nM at human PRMT1 and 176 nM against human PRMT6 (setting [1]).
`CCCN(CCN)Cc1c[nH]nc1-c1ccc(F)cc1` [Compound 63]: the IC50 at human PRMT1 turned out to be 1540 nM; against human PRMT6 (setting [1]), 1150 nM.
Turning to `CNCCN(C)Cc1c[nH]nc1-c1ccc(C)cc1C` [Compound 29], the IC50 against human PRMT1 is 178 nM; at human PRMT6 (setting [1]), 61.7 nM.
In the same order, the values of `CNCCN(C)Cc1c[nH]nc1-c1ccc2ccccc2c1` [Compound 58] are 5.73 nM and 6.14 nM.
On to `CNCCN(C)Cc1c[nH]nc1-c1cc(OC(C)C)cc(C(C)C)c1` [Compound 260], for which the IC50 came to 23.9 nM against human PRMT1 and 243 nM on human PRMT6 (setting [1]).
In the case of `CNCCN(C)Cc1cn(Cc2cccnc2)nc1-c1ccc(OC(C)C)cc1` [Compound 246], the IC50 at human PRMT1 stood at 61.5 nM; on human PRMT6 (setting [1]), 318 nM.
With `CNCCN(C)Cc1c[nH]nc1-c1ccc(OC)cc1` [Compound 25], the IC50 at human PRMT1 came to 20.9 nM; against human PRMT6 (setting [1]) it was 10.9 nM.
The corresponding values for `CNCCN(C)Cc1n[nH]cc1-c1ccc(Oc2ccccc2)c(C(=O)N(C)C)c1` [Compound 241] are 52.2 nM and 34.1 nM.
The corresponding values for `CNCCN(C)Cc1c[nH]nc1-c1ccccc1OC` [Compound 23] are 194 nM and 183 nM.
With `CNCCN(C)Cc1n[nH]cc1-c1cc(CC(C)C)cc(CC(C)C)c1` [Compound 271], the half-maximal inhibitory concentration (IC50) on human PRMT1 is 52.4 nM; on human PRMT6 (setting [1]) it was 864 nM.
`CNCCN(C)Cc1c[nH]nc1-c1ccc(Oc2cccc(C#N)c2)cc1` [Compound 261]: the values for the IC50 against human PRMT1 and against human PRMT6 (setting [1]) were 2.94 nM and 2.44 nM, respectively.
With `CNCCN(C)Cc1n[nH]cc1-c1cc(C(C)C)cc(C(C)C)c1` [Compound 242], the results for the IC50 against human PRMT1 and at human PRMT6 (setting [1]) were 376 nM and > 1000 nM, respectively.
For the compound `CNCCN(C)Cc1cn(Cc2ccccn2)nc1-c1ccc(OC(C)C)cc1` [Compound 247], the IC50 against human PRMT1 was found to be 147 nM; against human PRMT6 (setting [1]) it was 805 nM.
`CNCCN(C)Cc1cn(CC(N)=O)nc1-c1ccc(OC(C)C)cc1` [Compound 251]: the IC50 at human PRMT1 amounted to 275 nM; against human PRMT6 (setting [1]), 2370 nM.
The corresponding values for `CNCCN(C)Cc1cn(CCCC(O)CO)nc1-c1ccc(F)cc1` (centres unmarked) [Compound 30] are 3560 nM and 565 nM.
In the same order, the values of `CNCCN(C)Cc1c[nH]nc1-c1ccc(N)cc1` [Compound 33] are 153 nM and 37.9 nM.
In the same order, the values of `CNCCN(C)Cc1c[nH]nc1-c1ccc(Oc2cccc(OC)c2)cc1` [Compound 230] are 3.43 nM and 2.19 nM.
In the case of `CN(CCN)Cc1cn(CCO)nc1-c1ccc(F)cc1` [Compound 66], the IC50 was 2410 nM at human PRMT1 and 1040 nM against human PRMT6 (setting [1]).
As for `CNCCN(C)Cc1c[nH]nc1-c1cccc(O)c1` [Compound 26], the IC50 stood at 197 nM on human PRMT1 and 22.5 nM against human PRMT6 (setting [1]).
In the case of `CNCCN(C)Cc1n[nH]cc1-c1ccc(Oc2cccc(C#N)c2)cc1` [Compound 267], the figures for the IC50 against human PRMT1 and at human PRMT6 (setting [1]) were 3.47 nM and 1.56 nM, respectively.
In the same order, the values of `CNCCN(C)Cc1cn(CC(=O)O)nc1-c1ccc(OC(C)C)cc1` [Compound 250] are 737 nM and 4260 nM.
As for `CNCCN(C)Cc1c[nH]nc1-c1ccccc1-c1ccccc1` [Compound 46], the half-maximal inhibitory concentration (IC50) against human PRMT1 came to 2500 nM; at human PRMT6 (setting [2]) it was 3220 nM.
Turning to `CNCCN(C)Cc1n[nH]cc1-c1cc(OC(C)C)cc(C(C)C)c1` [Compound 272], the IC50 against human PRMT1 was 156 nM; at human PRMT6 (setting [1]), > 1000 nM.
In the case of `CNCCN(C)Cc1n[nH]c(C)c1-c1ccc(OC(C)C)cc1` [Compound 275], the figures for the IC50 against human PRMT1 and on human PRMT6 (setting [1]) were 8.63 nM and 20.9 nM, respectively.
Regarding `CC(C)Cc1cc(-c2n[nH]cc2CN(C)CCN)ccc1F` [Compound 280], the figures for the half-maximal inhibitory concentration (IC50) on human PRMT1 and at human PRMT6 (setting [1]) were 4.3 nM and 10.2 nM, respectively.
